Data reported in EPA's ToxValDB 9.5 (doi:10.2903/j.efsa.2012.2917).
“And” between values parts separate entries of the source, which are not always exact repeats. Identical values can stand only once.

Assays:
Anas platyrhynchos = conditions: short-term; oral; feed; mortality

Question: `Cn1cc(C(=O)Nc2ccc(F)cc2-c2ccc(Cl)c(Cl)c2)c(C(F)F)n1` [Bixafen] was tested. Which LC50 (Anas platyrhynchos) did it give?
Answer: Its LC50 is greater than 1550 mg/kg-day.

Question: And the LC50 (Colinus virginianus; acute, oral, diet, mortality)?
Answer: The LC50 was greater than 1160 mg/kg-day.

Question: And the LD50 (Colinus virginianus; acute, oral, mortality)?
Answer: Its LD50 is greater than 2000 mg/kg-day.

Question: And the NOEC (Colinus virginianus; reproduction developmental)?
Answer: Its NOEC is 24.5 mg/kg-day and 30 mg/kg-day.

Question: And the LD50 (Rattus norvegicus; acute, oral, mortality)?
Answer: The LD50 was greater than 5000 mg/kg-day.

Question: And the NOEL (Rattus norvegicus; chronic, body weight)?
Answer: Its NOEL is 33.3 mg/kg-day.

Question: What about the NOAEL (Rattus norvegicus; chronic, duration: 2 years, organ weight) of the same molecule?
Answer: Its NOAEL is 2 mg/kg-day.

Question: What about the NOAEL (Rattus norvegicus; developmental, development) of the same molecule?
Answer: The NOAEL was 20 mg/kg-day.

Question: What about the NOAEL (Rattus norvegicus; subchronic, duration: 90 days, oral, organ weight) of the same molecule?
Answer: Its NOAEL is 12.9 mg/kg-day.
